In patent US20130244255A1, “ANTIBODIES DIRECTED TO GPNMB AND USES THEREOF” (priority 2006, published 2013):
“Also recorded” adds a separate entry of the source.

Columns and labels:
[1] = tested on: SK-Mel-2 cells; test: Cell cycle analysis (BrdU / propidium iodide flow cytometry); type: cell-based, human
Procedure: (§1) Briefly, cells were pulsed at the indicated times with 30 μM of bromodeoxyuridine (BrdU, Sigma) for 30 min, harvested, fixed and permeabilized in methanol. Nascent DNA synthesis was detected by anti-bromodeoxyuridine-FITC (BD Biosciences, San Jose, Calif.) staining. Total DNA content was detected using propidium iodide (PI, Sigma). For apoptosis analysis, cells were treated as above and labeled with Annexin V-FITC followed by propidium iodide exclusion using the Annexin V-FITC Apoptosis Detection kit I (BD PharMingen, San Diego, Calif.) according to the manufacturer's protocols. Flow cytometry (as described in the previous Example) was used to assay both cell cycle and apoptosis studies.
(§2) DNA synthesis and cell cycle progression were determined by flow cytometry (Table 52).

[2] = tested on: TK-10 control cells; test: as above; type: cell-based, human
Procedure: as §1, §2

[3] = tested on: SK-MEL-2 human melanoma xenograft; test: SK-MEL-2 human melanoma xenograft in athymic mice; type: in vivo
Procedure: Five- to 6-week old athymic mice (CD-1 nu/nu females), used for human tumor xenografts, were obtained from Harlan Laboratories (Indianapolis, Ind.). Animals were housed in specific pathogen-free conditions, according to the guidelines of the Association for Assessment and Accreditation of Laboratory Animal Care International (AAALAC International). Test animals were provided pelleted food and water ad libitum and kept in a room with conditioned ventilation (HVAC), temperature (22°±2° C.), relative humidity (55%±15%), and photoperiod (12 hr). All studies were carried out with approved institutional animal care and use protocols.
The tumor inhibitory activity of the CR011-MMAE immunoconjugate was measured in an anti-tumor xenograft model using athymic mice, according to published methods (see Geran et al., Cancer Chemother. Rep. 3:1-104 (1972)). […] When tumors became established (10-20 days), the animals were pair-matched into groups (n=6 mice/group), and treatment was administered by intravenous injection (tail vein).
The SK-MEL-2 human melanoma (ATCC #HTB-68) was derived from a metastatic site (skin of thigh) of a person with malignant melanoma, and the SK− MEL-5 human melanoma (ATCC #HTB-70) was derived from a metastatic site (axillary lymph node) of a person with malignant melanoma (see Fogh et al., J. Natl. Cancer Inst. 59: 221-226 (1977)). Both cell lines were obtained from the American Type Culture Collection.
The effects of treatment were monitored by repetitive tumor measurements across 2 diameters with Vernier calipers; tumor size (in mg) was calculated using a standard formula, (W^2×L)/2, assuming a specific gravity of 1.0. Tumor size and body weights were assessed twice weekly. Mice were examined daily, however, and moribund animals were humanely euthanized if clinical indications of excessive pain or distress were noted (i.e., prostration, hunched posture, paralysis/paresis, distended abdomen, ulcerations, abscesses, seizures, and/or hemorrhages) Animals with tumors exceeding 2,000 mg were removed from the study and euthanized humanely.
No apparent or statistically significant anti-tumor effects were observed. […] In preliminary studies, tumor regression was complete and was not followed by regrowth of the tumor despite lengthy observation periods (up to 200 days).

[4] = tested on: HEK293 cells; test: Clonogenic assay, HEK293 cells transfected with GPNMB or empty vector; type: cell-based, human; conditions: 96 hours treatment
Procedure: Cells were plated in 96-well plates and allowed to recover overnight. […] The cells were then transferred into 6-well plates and allowed to form colonies. Colonies were stained with Giemsa stain (Sigma) and counted. The surviving cell fractions were calculated based upon the ratio of the treated sample and the untreated control. The results were expressed as a percentage of control using GraphPad Prism Version 4 software.
Immunoblot (FIG. 9A) and FACS (FIG. 9B) analyses confirmed that GPNMB was expressed in GPNMB/plasmid transfected cells.

[5] = Pharmacokinetics of CR011-vcMMAE after intravenous administration (sandwich ELISA of antibody in serum); type: in vivo, athymic mice; conditions: for A (pre-exponential constant for alpha phase) / AUC (total area under the curve from 0 to infinity) / Alpha (exponential rate constant for alpha phase) / Alpha-Half Life / B (pre-exponential constant for beta phase) / Beta (exponential rate constant for beta phase) / Beta-Half Life / Cl (total or systemic clearance) / MRT (mean residence time) / Volume (volume of central compartment) / Vss (steady-state volume of distribution): athymic mice, i.v.
Procedure: The concentration-time pattern was bi-phasic. […] Nevertheless, the compound disappeared very slowly from the peripheral blood (T1/2β=10.3 days) with serum concentrations of […] and 10 μg/mL remaining in the blood for 6 weeks after dosing.

Substance: CR011: fully human monoclonal antibody that specifically binds to GPNMB; VH SEQ ID NO: 20, VL SEQ ID NO: 29
- % G1 ([1]; SK-Mel-2, 24 hour, 1000 ng/mL): 63.6%
- % G2/M ([1]; SK-Mel-2, 24 hour, 1000 ng/mL): 6.4%
- % S-phase ([1]; SK-Mel-2, 24 hour, 1000 ng/mL): 25.2%
- % Sub-G1 ([1]; SK-Mel-2, 24 hour, 1000 ng/mL): 0.5%
- % G1 ([2]; TK-10, 24 hour, 1000 ng/mL): 42.0%
- % G2/M ([2]; TK-10, 24 hour, 1000 ng/mL): 6.3%
- % S-phase ([2]; TK-10, 24 hour, 1000 ng/mL): 39.8%
- % Sub-G1 ([2]; TK-10, 24 hour, 1000 ng/mL): 0.3%
- tumor growth inhibition by components of the immunoconjugate (in words) ([3]; doses identical to that contained in the intact immunoconjugate (5 mg/kg q4d×4)): lack of responses; also recorded: lack of tumor growth inhibition

Substance: CR011-vcMMAE: CR011 conjugated to monomethyl auristatin E through a protease cleavable valine-citrulline linker; approx. 4 drugs per antibody
- decreased percentage of cells in G1 and S-phase vs untreated cells ([1]; 1000 ng/mL, 24 hrs): 10%
- reduced percentage of cells in G1 and S-phase ([1]; 1000 ng/mL, 48 hr): 11%
- % G1 ([1]; SK-Mel-2, 24 hour, 100 ng/mL): 56.0%
- % S-phase ([1]; SK-Mel-2, 24 hour, 100 ng/mL): 26.9%
- % Sub-G1 ([1]; SK-Mel-2, 24 hour, 100 ng/mL): 0.2%
- % G1 ([1]; SK-Mel-2, 24 hour, 1000 ng/mL): 43.7%
- % S-phase ([1]; SK-Mel-2, 24 hour, 1000 ng/mL): 20.0%
- effect on cycling of GPNMB-negative cells ([2]; 1000 ng/mL): did not affect the cycling
- % G1 ([2]; TK-10, 24 hour, 100 ng/mL): 51.1%
- % S-phase ([2]; TK-10, 24 hour, 100 ng/mL): 35.1%
- % Sub-G1 ([2]; TK-10, 24 hour, 100 ng/mL): 0.7%
- % G1 ([2]; TK-10, 24 hour, 1000 ng/mL): 52.6%
- % S-phase ([2]; TK-10, 24 hour, 1000 ng/mL): 34.2%
- % Sub-G1 ([2]; TK-10, 24 hour, 1000 ng/mL): 0.8%
- tumor size reached ([3]; 1 mg/kg single bolus dose, day 58): ≥ 2,000 mg
- tumor response (in words) ([3]; 10 mg/kg single bolus dose): complete regressions
- earliest significant treatment effects, time after treatment commenced ([3]; CR011-vcMMAE i.v. q4d×4, P≦0.014): 4 days
- anti-tumor effect (in words) ([3]; i.v., CR011-vcMMAE 20, 10, 5 or 2.5 mg/kg q4d×4, vinblastine […] q4d×4): tumors rapidly diminished in size for the majority of the test animals
- treatment effects on gross examination ([3]; mouse, in vivo): no abnormal treatment effects
- effects of treatment on body weight or weight gain ([3]; twice weekly body weight determinations): no observable or statistically significant effects
- sensitivity of GPNMB-expressing HEK293 cells vs control cells to growth-inhibition [4]: more sensitive
- T1/2β ([5]; 1 or 10 mg/kg intravenously): 10.3 days
- A (pre-exponential constant for alpha phase) ([5]; 1 mg/kg): 8.97 µg/mL
- AUC (total area under the curve from 0 to infinity) ([5]; 1 mg/kg): 3712 µg·h/mL
- Alpha (exponential rate constant for alpha phase) ([5]; 1 mg/kg): 0.179 h⁻¹
- Alpha-Half Life ([5]; 1 mg/kg): 0.162 days
- B (pre-exponential constant for beta phase) ([5]; 1 mg/kg): 9.82 µg/mL
- Beta (exponential rate constant for beta phase) ([5]; 1 mg/kg): 0.00269 h⁻¹
- Beta-Half Life ([5]; 1 mg/kg): 10.8 days
- Cl (total or systemic clearance) ([5]; 1 mg/kg): 6.46 mL/day/kg
- MRT (mean residence time) ([5]; 1 mg/kg): 15.3 days
- Volume (volume of central compartment) ([5]; 1 mg/kg): 0.0532 L/kg
- Vss (steady-state volume of distribution) ([5]; 1 mg/kg): 0.099 L/kg
- A (pre-exponential constant for alpha phase) ([5]; 10 mg/kg): 74.6 µg/mL
- AUC (total area under the curve from 0 to infinity) ([5]; 10 mg/kg): 41210 µg·h/mL
- Alpha (exponential rate constant for alpha phase) ([5]; 10 mg/kg): 0.0812 h⁻¹
- Alpha-Half Life ([5]; 10 mg/kg): 0.3555 days
- B (pre-exponential constant for beta phase) ([5]; 10 mg/kg): 113 µg/mL
- Beta (exponential rate constant for beta phase) ([5]; 10 mg/kg): 0.00281 h⁻¹
- Beta-Half Life ([5]; 10 mg/kg): 10.3 days
- Cl (total or systemic clearance) ([5]; 10 mg/kg): 5.83 mL/day/kg
- MRT (mean residence time) ([5]; 10 mg/kg): 14.5 days
- Volume (volume of central compartment) ([5]; 10 mg/kg): 0.0532 L/kg
- Vss (steady-state volume of distribution) ([5]; 10 mg/kg): 0.0845 L/kg
- volume of distribution at steady state (Vss) ([5]; in words): very low
